We go through two compounds from PMC9653733, “Characterization of a Potent, Selective, and Safe Inhibitor, Ac15(Az8)2, in Reversing Multidrug Resistance Mediated by Breast Cancer Resistance Protein (BCRP/ABCG2)” (International Journal of Molecular Sciences, 2022).

One data set deals with BCRP (MCF7-MX100 cells). The following applies: concentration reducing IC50 of anticancer drug by half; mean ± S.D.; ref [42]; read-out: EC50 needed for reversing BCRP-mediated topotecan resistance, MCF7-MX100; cited from earlier work.
Data set [1] concerns S1M180 xenograft. The source says:
(§1) (A) S1 xenograft. (B) S1M180 xenograft. There were 3 treatment groups in S1 and S1M180 xenograft model. Treatments were given as indicated by an arrow (↑). % of tumor volume reduction was compared among different treatment groups on days 55 and 71. a, b, and c = mean tumor volume of solvent control, topotecan alone, and combination treatment groups on day 55, respectively. d and e = mean tumor volume of topotecan alone and combination treatment groups on day 71. (C) Tumor weight of S1M180-bearing mice on termination day. (D) % change of tumor volume and tumor doubling time of S1M180 xenograft were determined on days 55 and 71. […] Number of animal death was monitored during the efficacy study. (E) Body weight of S1M180-bearing mice. (F) To measure plasma and intratumor level of topotecan, S1M180-bearing mice were administered with 45 mg/kg (I.P.) of Ac15(Az8)2 one hour prior to 6 mg/kg (I.P.) of topotecan administration. Five hours after topotecan administration, the mice were sacrificed. Plasma and tumor were collected for analyzing topotecan level using UPLC–MS/MS. Student’s unpaired two-tailed t-test was performed between combination group and topotecan alone group or solvent control group as indicated (* p < 0.05, ** p < 0.01, *** p < 0.001).
Ten million of S1M180 cells were injected subcutaneously into Balb/c nu nu mice (Beijing Vital River Laboratory Animal Technology Co., Ltd., Beijing, China). Mice with solid tumors formed were sacrificed. The tumor was removed and cut into 1 mm^3 and xenografted subcutaneously onto another Balb/c nu nu mouse for passage or efficacy study. Treatment of nude mice started when the xenograft reached 100–150 mm^3. The mice were randomized into 3 groups (n = 7 mice per group). Group (1) was treated with Ac15(Az8)2 solvent (I.P.) and topotecan solvent (I.P.), group (2) was treated with Ac15(Az8)2 solvent (I.P.) and topotecan (2 mg/kg, I.P.), group (3) was treated with Ac15(Az8)2 (45 mg/kg, I.P.) and topotecan (2 mg/kg, I.P.). The formulation used was the same as that of the pharmacokinetic study. S1M180-bearing nude mice were treated for 4 rounds. In each round, they were treated once every two days 6 times, allowed to rest for 7 days, and treated again. […] The body weights of mice were monitored throughout the experiment. Tumor dimensions were measured by an electronic caliper, and the tumor volume was calculated as reported previously.

The next data set has as its target T1, BCRP-ATPase (Homo sapiens, UniProt Q9UNQ0, R482G).
T1 construct: endogenous in cells; host or cells: S1M180 (human colon carcinoma, mitoxantrone-selected)
T1 sequence (Q9UNQ0 1-655 R482G): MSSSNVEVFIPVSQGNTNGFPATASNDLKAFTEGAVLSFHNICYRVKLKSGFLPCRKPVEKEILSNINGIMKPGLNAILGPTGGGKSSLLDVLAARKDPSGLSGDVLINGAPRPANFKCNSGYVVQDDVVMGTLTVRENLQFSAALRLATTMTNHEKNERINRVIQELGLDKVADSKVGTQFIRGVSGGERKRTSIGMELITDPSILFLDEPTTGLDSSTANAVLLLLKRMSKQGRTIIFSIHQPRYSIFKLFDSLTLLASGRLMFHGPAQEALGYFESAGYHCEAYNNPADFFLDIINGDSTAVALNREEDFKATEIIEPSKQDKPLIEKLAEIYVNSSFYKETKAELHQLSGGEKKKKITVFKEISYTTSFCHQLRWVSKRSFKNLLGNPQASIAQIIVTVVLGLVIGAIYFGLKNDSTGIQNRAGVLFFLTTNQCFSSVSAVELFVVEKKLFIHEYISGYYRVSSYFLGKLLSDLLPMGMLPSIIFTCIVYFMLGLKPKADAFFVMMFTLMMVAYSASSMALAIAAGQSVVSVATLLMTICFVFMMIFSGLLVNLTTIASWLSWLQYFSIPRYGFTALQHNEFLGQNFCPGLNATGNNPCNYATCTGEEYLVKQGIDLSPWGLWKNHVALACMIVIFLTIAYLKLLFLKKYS
Nature of the data set: Vanadate-sensitive BCRP-ATPase activity (S1M180 microsome fraction). The data set is classed as biochemical. To be noted: 2.5 mM ATP, 1 h.

Data set [2] concerns S1M180 xenograft. Put plainly: In vivo topotecan accumulation in tumor and plasma of S1M180-bearing mice. The following applies: 45 mg/kg Ac15(Az8)2 I.P. one hour prior to 6 mg/kg topotecan I.P.; 5 h post administration.
Excerpt: as §1

Another data set has as its target T2, BCRP (Homo sapiens, UniProt Q9UNQ0, R482G).
T2 construct: endogenous in cells; host or cells: S1M180 (human colon carcinoma, mitoxantrone-selected)
T2 sequence (Q9UNQ0 1-655 R482G): T1 sequence (Q9UNQ0 1-655 R482G)
Put plainly: Lineweaver-Burk and Dixon plots of DOX retention in S1M180. The data set is classed as cell-based. The following applies: for Ki: S1M180, DOX retention. How it is done:
We investigated the biochemical mechanism by which Ac15(Az8)2 inhibits BCRP. S1M180 cells were incubated with DOX and Ac15(Az8)2 at different concentrations. DOX accumulation was measured and analyzed by Lineweaver–Burk plot. […] Moreover, it is implied that DOX and Ac15(Az8)2 are not binding to the same site on BCRP. The apparent inhibition constant (Ki) can be calculated by either the Lineweaver–Burk plot (inset of Figure 5A) or the Dixon plot (Figure 5B).
Figure 5 Lineweaver–Burk and Dixon plot for Ac15(Az8)2 and DOX. S1M180 cells were incubated with different concentrations of Ac15(Az8)2 and DOX. The cells were pre-treated with Ac15(Az8)2 for 2 h and then incubated with DOX for 1 h at 37 °C. After incubation, the cells were washed with ice-cold PBS, and the intracellular DOX level was measured. (A) In Lineweaver–Burk plot, the reciprocal of DOX retention rate (V, μM/min/500,000 cells) is plotted against reciprocal of DOX concentration used. Six lines of Ac15(Az8)2 pass through the same intercepts at the x-axis, which is Km for the DOX. […] (B) In Dixon plot, reciprocal of DOX retention rate (1/V) was plotted against concentration of Ac15(Az8)2.

For another data set, the system named is S1 cells. Nature of the data set: Cytotoxicity of anticancer drugs in parental S1 (0.1% DMSO). The data set is classed as cell-based, human.
[3] abbreviates: 45 mg/kg Ac15(Az8)2 + 2 mg/kg topotecan.

SMILES strings stand for the structures. “And” between values parts separate entries of the source, which are not always exact repeats. Equal values may be shown once. Read-outs that look alike come from different tables or passages of the source.

Description for BCRP-ATPase: Ouabain (Na^+/K^+-ATPase inhibitor) and sodium azide (F-type ATPase inhibitor) were added to S1M180 microsome fraction to inhibit non-ABC transporter ATPase activities. Sodium orthovanadate inhibits ABC transporter ATPase activity and is used to calculate vanadate-ensitive activity by subtraction from the total ATPase activity (without sodium orthovanadate). […] After reaction was stopped, inorganic phosphate level was determined using colorimetry method. The percentages of vanadate-sensitive BCRP-ATPase activity were shown as mean ± S.D.
The membrane fraction of S1M180 cells was prepared as previously reported [48]. […] The absorbance of 655 nm was measured by CLARIOstar® microplate reader (BMG). […]

Take `COC(=O)c1cccc(COc2c(-c3ccc(OCCOCCn4cc(CN(Cc5ccccc5)Cc5cn(CCOCCOc6ccc(-c7oc8ccccc8c(=O)c7OCc7cccc(C(=O)OC)c7)cc6)nn5)nn4)cc3)oc3ccccc3c2=O)c1` [Ac15(Az8)2]: the EC50 (usually the concentration that produces a half-maximal response) in the data set with BCRP (MCF7-MX100 cells) is 3 nM and 3.3 nM. The “Lengthening of tumor doubling time by combination treatment vs solvent group” value in the data set with S1M180 xenograft [1] (setting [3]) was found to be 4.6 days. For the same compound, the “Lengthening of tumor doubling time by combination treatment vs topotecan alone” value in the data set on S1M180 xenograft [1] (setting [3]) was 1.8 days. Also, the “Reduction of tumor weight by combination treatment vs solvent group” value in the data set on S1M180 xenograft [1] (termination day, p < 0.001) is 1.9 fold. In the data set with S1M180 xenograft [1] (termination day, p < 0.01), the “Reduction of tumor weight by combination treatment vs topotecan alone” value is recorded as 1.6 fold. Further, at BCRP-ATPase, the IC50 – broadly, the concentration at which inhibition is half-maximal – is 7.5 nM. The “Effect on plasma level of topotecan” value in the data set on S1M180 xenograft [2] is listed as “did not change significantly”. Moreover, the Ki is 230 to 295 nM at BCRP (Lineweaver–Burk and Dixon, read-out: Apparent inhibition constant (Ki), range of both plots); 230 nM on BCRP (read-out: Ki, Dixon plot); 295 nM at BCRP (slope of double reciprocal plots vs concentration, read-out: Apparent Ki, Lineweaver–Burk plot). Besides, the “Relationship with DOX in binding to BCRP” value on BCRP (did not affect Km but reduced Vmax) is on record as “non-competitive”.
As to `CC[C@@]1(O)C(=O)OCc2c1cc1n(c2=O)Cc2cc3c(CN(C)C)c(O)ccc3nc2-1` [topotecan], in the data set with S1 cells (Homo sapiens, S1 + 0.1% DMSO, mean ± S.D., n = 3, read-out: IC50 of topotecan), the IC50 is 446 ± 20 nM. The “RF (Relative Fold), topotecan: resistance of S1M180 compared to parental S1” value in the data set on S1 cells (S1 + 0.1% DMSO vs S1M180 + 0.1% DMSO) stood at 27.9.
